{
  "source": "patent US12440582B2",
  "about": "“Biothiol-activatable probe and method of use” (BOARD OF REGENTS, THE UNIVERSITY OF TEXAS SYSTEM, priority 2019, dated 2025)",
  "key": {"[1]": {"conditions": "in vivo", "excerpt": "FIGS. 39A-E. Utilization of hepatic glutathione-mediated biotransformation to enhance tumor targeting of a cisplatin prodrug. (FIG. 39A) Scheme illustrating the rationale of designing the ICG-Cis-Pt prodrug by combining temporal serum protein binding and hepatic glutathione-mediated biotransformation to slow down the rapid renal clearance of Cis-Pt prodrug and enhance its tumor targeting efficiency while avoiding predominant accumulation in MPS. […] (FIG. 39C) Tumor targeting efficiency of Cis-Pt pro drug and ICG-Cis-Pt prodrug at 48 hr p.i. (FIG. 39D) Renal clearance profiles of Cis-Pt prodrug and ICG-Cis-Pt prodrug. […] (FIG. 39E) Biodistribution of Pt in organs at 48 hr and 7 day following intravenously injection of ICG-Cis-Pt prodrug. The accumulation of ICG-Cis-Pt in MPS as well as in other major organs is low and continues to decrease over time. Statistical significance is evaluated by two-sample t-test (**p<0.01)."}, "[2]": {"system": "liver GSH", "test": "Liver GSH level measured ex vivo (Tietze enzymatic recycling assay)", "assay_type": "in vivo, BALB/c mice", "conditions": "for hepatic GSH level: 30 min p.i."}, "[3]": {"system": "serum GSH", "test": "Serum GSH level following APAP administration", "assay_type": "in vivo, mice", "conditions": "2 h after APAP 300 mg/kg i.p.", "experimental": "FIG. 54. Serum GSH level following APAP administration. […] Data reported are means and standard deviation overlapped with data points from individual mouse. Statistical significance is evaluated by two-sample equal variance t-test. P<0.05 is considered statistically significant. N=4 mice for the experiment."}, "[4]": {"system": "plasma GSH", "test": "Plasma glutathione level after DEM administration", "assay_type": "in vivo, BALB/c mice", "experimental": "FIGS. 21A-B. Plasma glutathione level after DEM administration. (FIG. 21A) Plasma total glutathione (reduced GSH+2GSSG) and glutathione disulfide (GSSG) concentration at various time points after intraperitoneal injection of 1 mL/kg DEM in mice (n=3). (FIG. 21B) Plasma reduced glutathione concentration at different time was then calculated by subtracting GSSG from the total GSH concentration. The quantification of plasma total GSH and GSSG was carried out according to the established procedures (Rahman et al., 2006) via a modified Tietze enzymatic recycling assay.\nDepletion of tissue GSH in vivo."}, "[5]": {"test": "Tumor targeting efficiency in MCF-7 xenograft mice", "assay_type": "in vivo", "conditions": "nude, mouse, tumor (MCF-7 xenograft), intravenous, 24 hr p.i., read-out: tumor targeting efficiency (ICG)", "excerpt": "Blue arrows indicate the tumors."}, "[6]": {"test": "Blood pharmacokinetics after intravenous injection", "conditions": "i.v.", "quoted_text": "Statistical significance is evaluated using a two-sample unequal variances (Welch's) t-test (**P<0.01, ***P<0.005). Data points are reported as mean±s.d.\nBoth curves were fitted with two-phase exponential decay functions to obtain the weighted average half-lives.\nPharmacokinetics and biodistribution study of 1CG4-GS-Au25. […] At certain time point post-injection, blood sample (˜30 μL) was retro-orbitally collected and weighed, followed by the addition of 500 μL lysis buffer containing 20 mM cysteine (pH˜8) to liberate ICG from Au25 nanocluster and recover the quenched fluorescence of ICG. Then fluorescence of cysteine treated blood sample was measured by the in vivo imaging system to quantify ICG in blood. Afterwards, the blood sample was completely dissolved in freshly made aqua regia and the Au amount in blood was analyzed by ICP-MS."}, "[7]": {"system": "MCF-7 tumor", "test": "in vivo", "conditions": "MCF-7 tumor bearing nude mice", "excerpt": "(§1) FIGS. 30A-B. Decay of background tissue fluorescence signal over time. (FIG. 30A) Representative in vivo imaging of 1CG4-GS-Au25 injected mouse (72 hr p.i.) illustrating the region of interest (ROI) chosen for tumor (red dashed circle) and background tissue (yellow dashed circle) ICG fluorescence quantification. Red arrows indicate tumor location."}, "[8]": {"test": "in vivo", "conditions": "nude, mouse, in vivo", "excerpt": "as §1"}, "[9]": {"system": "APAP-induced liver injury", "test": "NAC treatment of APAP-induced liver injury (liver morphology, TUNEL)", "assay_type": "in vivo, mice", "experimental": "FIGS. 44A-D. Monitoring hepatic GSH depletion in drug-induced liver injury allows early treatment and improves prognosis. (FIG. 44A) Scheme of the APAP metabolism and pathophysiology process of APAP overdose induced hepatotoxicity. Hepatic GSH depletion occurs much earlier than the death of hepatocytes and the release of serum biomarkers. (FIG. 44B) Serum ALT levels of mice (N=3) at multiple time points after receiving 300 mg/kg body weight APAP. […] (FIG. 44C) Serum ALT levels of mice (N=3) at 12 h post injection of overdose APAP with NAC treatment at different time points after APAP administration. (FIG. 44D) Representative color pictures of the liver (12 h after APAP administration) as well as fluorescent microscope images of cell death in liver tissues (detected using TUNEL assay) from APAP overdosed mice without NAC treatment or receiving NAC treatment at 30 min (early treatment) and 5.5 h (delayed treatment) after APAP administration. Cell nuclei were counter-stained with DAPI. Scale bar, 20 μm. Statistical significance is evaluated by two-sample equal variance t-test (P<0.05; statistically significant). Data points are presented as means and standard deviation.\nAPAP-induced liver injury animal model. Healthy male BALB/c mice were pre-fasted for 5 h and then intraperitoneally injected with APAP saline solution (˜28 mg/mL) at an overdose of 300 mg/kg body weight. […]"}},
  "note": "Structures can show the parent of a compound that is named as a salt.",
  "data": [
    {"compound": "[NH2][Pt]([NH2])([OH])([Cl])([Cl])[O]C(=O)CCC(=O)O", "note": "[Cis-Pt prodrug, cis,cis,trans-[Pt(NH3)2Cl2(OH)(O2CCH2CH2COOH)]]", "values": [
      {"measurement": "AUC (blood retention)", "setting": "[1]", "value": "7.4±0.2", "unit": "% ID/g×h"}
    ]},
    {"compound": "CC(=O)Nc1ccc(O)cc1", "note": "[APAP, acetaminophen]", "values": [
      {"measurement": "hepatic GSH level of overdosed mice, of that of the control mice", "setting": "[2]; APAP 300 mg/kg", "value": "~36", "unit": "%"},
      {"measurement": "hepatic GSH level", "setting": "[2]; APAP normal dose 60 mg/kg", "value": "6.6±0.8", "unit": "μmole/g tissue"},
      {"measurement": "hepatic GSH level", "setting": "[2]; APAP overdose 300 mg/kg", "value": "2.1±1.2", "unit": "μmole/g tissue"},
      {"measurement": "serum GSH level", "setting": "[3]", "value": "didn't change significantly"}
    ]},
    {"compound": "CCOC(=O)/C=C\\C(=O)OCC", "note": "[DEM, diethyl maleate]", "values": [
      {"measurement": "liver GSH level", "setting": "[2]; 0.3 mg/kg body weight DEM, intraperitoneal", "value": "~3.1", "unit": "μmole/g liver tissue"},
      {"measurement": "liver GSH level", "setting": "[2]; 0.6 mg/kg body weight DEM, intraperitoneal", "value": "~0.6", "unit": "μmole/g liver tissue"},
      {"measurement": "duration of low plasma GSH level before recovery", "setting": "[4]; single injection of DEM", "value": "2 to 3", "unit": "h"},
      {"measurement": "plasma GSH level, of the initial value", "setting": "[4]; single intraperitoneal injection of DEM, 1 mL/kg", "value": "~12", "unit": "%"}
    ]},
    {"compound": "CN(C)CCCN1c2ccccc2Sc2ccc(Cl)cc21", "note": "[CPZ, chlorpromazine]", "values": [
      {"measurement": "liver GSH level", "setting": "[2]; 0.5 h after CPZ 100 mg/kg i.p.", "value": "decrease in hepatic GSH level"}
    ]},
    {"compound": "CC1(C)C(/C=C/C=C/C=C/C=C2\\N(CCCCS(=O)(=O)O)c3ccc4ccccc4c3C2(C)C)=[N+](CCCCS(=O)(=O)[O-])c2ccc3ccccc3c21", "note": "[free ICG, indocyanine green]", "values": [
      {"measurement": "tissue uptake at 24 h", "setting": "[5]", "value": "~0.15", "unit": "%ID/g"},
      {"measurement": "ICG blood retention (AUC)", "setting": "[6]", "value": "~1.9", "unit": "h×% ID/g"},
      {"measurement": "maximum tumor contrast index (CI)", "setting": "[7]", "value": 1.8},
      {"measurement": "half-life", "setting": "[8]; half-life of ICG retention (fluorescence decay) in tumor", "value": "~228", "unit": "min"},
      {"measurement": "half-life", "setting": "[8]; half-life of ICG signal in background tissues", "value": 210, "unit": "min"}
    ]},
    {"compound": "CC(=O)N[C@@H](CS)C(=O)O", "note": "[NAC, N-acetylcysteine]", "values": [
      {"measurement": "effect on liver damage (morphology, TUNEL)", "setting": "[9]; NAC at 30 min post-injection of APAP (early treatment)", "value": "almost completely reverse the liver damage"},
      {"measurement": "effect on liver damage (morphology, TUNEL)", "setting": "[9]; NAC at 5.5 h after APAP overdose (delayed treatment)", "value": "severe hemorrhage on the liver tissue as well as the pervasive death of liver cells"}
    ]}
  ]
}
